What all share (experiment): HPLC of itaconate, UV […] nm, Michaelis-Menten fit
Holding throughout (format): biochemical

For one test, the target named is T1, aCAD (Aspergillus terreus, UniProt B3IUN8).
T1 construct: gene cad1; aa 12-490, recombinant from E. coli, clone CAD16 (by order of listing), purified; homodimer
T1 sequence (B3IUN8 12-490): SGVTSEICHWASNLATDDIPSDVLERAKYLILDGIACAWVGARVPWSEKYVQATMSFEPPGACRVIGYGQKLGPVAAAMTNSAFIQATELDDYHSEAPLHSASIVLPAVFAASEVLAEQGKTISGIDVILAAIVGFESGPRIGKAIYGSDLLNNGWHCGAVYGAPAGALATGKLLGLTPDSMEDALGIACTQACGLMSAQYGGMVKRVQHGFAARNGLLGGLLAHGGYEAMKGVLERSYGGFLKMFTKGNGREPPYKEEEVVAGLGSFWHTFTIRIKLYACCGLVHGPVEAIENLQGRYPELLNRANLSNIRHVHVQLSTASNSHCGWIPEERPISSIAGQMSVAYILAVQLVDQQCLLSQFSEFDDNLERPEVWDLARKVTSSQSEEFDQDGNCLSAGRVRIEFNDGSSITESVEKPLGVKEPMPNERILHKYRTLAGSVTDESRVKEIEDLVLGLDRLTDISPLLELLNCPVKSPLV
Particulars: pH 7.0, 37 °C, 50 mM MOPS, 100 mM NaCl; 95% confidence interval in brackets; other pH 5.5-7.5 also in table.

A further test concerns the target T2, mACOD1 (Mus musculus, UniProt P54987).
T2 construct: gene Acod1; aa 4-461, recombinant from E. coli, clone CAD39 (by order of listing), purified; homodimer
T2 sequence (P54987 4-461): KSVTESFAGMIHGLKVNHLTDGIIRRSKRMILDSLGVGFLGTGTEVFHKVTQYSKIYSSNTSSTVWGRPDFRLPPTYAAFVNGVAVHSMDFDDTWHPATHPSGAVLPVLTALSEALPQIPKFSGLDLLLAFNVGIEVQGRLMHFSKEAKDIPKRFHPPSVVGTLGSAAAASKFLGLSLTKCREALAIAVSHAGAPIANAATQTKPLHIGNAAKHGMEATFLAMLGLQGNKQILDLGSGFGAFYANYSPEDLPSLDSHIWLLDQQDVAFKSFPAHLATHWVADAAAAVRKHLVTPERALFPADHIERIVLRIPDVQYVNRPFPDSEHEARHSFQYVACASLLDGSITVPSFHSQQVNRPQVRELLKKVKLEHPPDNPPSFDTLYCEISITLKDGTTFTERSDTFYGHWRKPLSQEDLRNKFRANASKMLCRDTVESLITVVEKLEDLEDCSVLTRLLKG
Conditions: pH 7.0, 37 °C, 50 mM MOPS, 100 mM NaCl; 95% confidence interval in brackets; other pH 5.5-8.25 also in table.

For another test, the target named is T3, hACOD1 (Homo sapiens, UniProt A6NK06).
T3 construct: gene ACOD1; aa 4-461, recombinant from E. coli, clone CAD29, purified; homodimer
T3 sequence (A6NK06 4-461): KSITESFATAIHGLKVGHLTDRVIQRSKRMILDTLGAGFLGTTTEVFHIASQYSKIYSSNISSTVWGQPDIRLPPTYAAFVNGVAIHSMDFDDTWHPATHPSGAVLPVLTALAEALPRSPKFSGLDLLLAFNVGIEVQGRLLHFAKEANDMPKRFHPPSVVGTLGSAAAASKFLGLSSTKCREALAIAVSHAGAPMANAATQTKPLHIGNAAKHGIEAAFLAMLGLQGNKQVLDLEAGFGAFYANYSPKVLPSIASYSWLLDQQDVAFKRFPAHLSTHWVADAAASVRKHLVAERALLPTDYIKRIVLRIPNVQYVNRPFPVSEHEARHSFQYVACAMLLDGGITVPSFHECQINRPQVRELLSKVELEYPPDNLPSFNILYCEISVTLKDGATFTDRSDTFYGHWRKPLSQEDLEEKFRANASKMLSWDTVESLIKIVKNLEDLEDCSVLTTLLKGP
Particulars: pH 7.0, 37 °C, 50 mM MOPS, 100 mM NaCl; 95% confidence interval in brackets; other pH 5.5-8.25 also in table.

The text below walks through data of article PMC11814083, “Effect of pH and buffer on substrate binding and catalysis by cis-aconitate decarboxylase” (Scientific Reports, 2025).

Structures are written as SMILES.

Take `O=C(O)/C=C(/CC(=O)O)C(=O)O` [cis-aconitate]: the “KM (95% confidence interval) (mM) / aCAD / kcat (95% confidence interval) (s^-1) / kcat/KM (M^-1 s^-1)” value at aCAD is listed as 2.1 (1.9-2.5) mM. In addition, the “Michaelis constant (KM)” value on mACOD1 was 0.17 (0.15-0.19) mM. Besides, the “KM (95% confidence interval) (mM) / hACOD1 / kcat (95% confidence interval) (s^-1) / kcat/KM (M^-1 s^-1)” value at hACOD1 is given as 0.23 (0.21-0.26) mM.
